# Values of other authors as cited in patent US20130217055A1, “METHOD FOR PREDICTING TYROSINE KINASE INHIBITOR (TKI) RESISTANCE IN PATIENTS SUFFERING FROM CHRONIC MYELOGENOUS LEUKEMIA (CML)” (PamGene B.V., priority 2010, published 2013).
# Test system: CML patients
structure (smiles),measurement,setting,value
Cc1ccc(NC(=O)c2ccc(CN3CCN(C)CC3)cc2)cc1Nc1nccc(-c2cccnc2)n1 [Imatinib],complete or nearly complete cytogenetic remission,patients treated in chronic phase CML,up to 80% of patients
same,CML patients treated that are or become resistant to the treatment,primary or secondary resistance,about 20%
